Assay results as given in patent publication US8134012B2 (priority 2005, dated 2012).
Where two headings read alike, the source gives them in different places.

Tests used:
Alternaria mali = settings: active compound concentration 1 ppm; 3 days incubation in PDB; single active compound
Pyricularia oryzae = assay type: cell-based

| SMILES | Efficacy in % found (Alternaria mali) [%] | Efficacy in % found (Pyricularia oryzae) [%] | Efficacy in % found (Pyricularia oryzae; active compound concentration 0.03 ppm, 4 days incubation in PDB, single active compound) [%] |
| --- | --- | --- | --- |
| CC(C)Oc1cccc(NC(=O)c2ccccc2C(F)(F)F)c1 [(3) flutolanil, flutolanil] | 12 |  |  |
| COP(=S)(OC)Oc1c(Cl)cc(C)cc1Cl [(2) tolclofos-methyl, tolclofos-methyl] |  | 13 |  |
| Cc1nn(C)c(F)c1C(=O)Nc1ccccc1C(C)CC(C)C (stereo not shown) [(1-2), N-[2-(1,3-dimethylbutyl)phenyl]-5-fluoro-1,3-dimethyl-1H-pyrazole-4-carboxamide] | 83 |  | 20 |
